Assay results reported in patent US11945813B2, “5-substituted 4-amino-1H-benzo[c][1,2,6]thiadiazine 2,2-dioxides and formulations and uses thereof” (Firmenich Incorporated, priority 2018, dated 2024).

Target: T1, T1R2/T1R3 taste receptor (Homo sapiens, UniProt Q8TE23)
T1 sequence (Q8TE23 20-839): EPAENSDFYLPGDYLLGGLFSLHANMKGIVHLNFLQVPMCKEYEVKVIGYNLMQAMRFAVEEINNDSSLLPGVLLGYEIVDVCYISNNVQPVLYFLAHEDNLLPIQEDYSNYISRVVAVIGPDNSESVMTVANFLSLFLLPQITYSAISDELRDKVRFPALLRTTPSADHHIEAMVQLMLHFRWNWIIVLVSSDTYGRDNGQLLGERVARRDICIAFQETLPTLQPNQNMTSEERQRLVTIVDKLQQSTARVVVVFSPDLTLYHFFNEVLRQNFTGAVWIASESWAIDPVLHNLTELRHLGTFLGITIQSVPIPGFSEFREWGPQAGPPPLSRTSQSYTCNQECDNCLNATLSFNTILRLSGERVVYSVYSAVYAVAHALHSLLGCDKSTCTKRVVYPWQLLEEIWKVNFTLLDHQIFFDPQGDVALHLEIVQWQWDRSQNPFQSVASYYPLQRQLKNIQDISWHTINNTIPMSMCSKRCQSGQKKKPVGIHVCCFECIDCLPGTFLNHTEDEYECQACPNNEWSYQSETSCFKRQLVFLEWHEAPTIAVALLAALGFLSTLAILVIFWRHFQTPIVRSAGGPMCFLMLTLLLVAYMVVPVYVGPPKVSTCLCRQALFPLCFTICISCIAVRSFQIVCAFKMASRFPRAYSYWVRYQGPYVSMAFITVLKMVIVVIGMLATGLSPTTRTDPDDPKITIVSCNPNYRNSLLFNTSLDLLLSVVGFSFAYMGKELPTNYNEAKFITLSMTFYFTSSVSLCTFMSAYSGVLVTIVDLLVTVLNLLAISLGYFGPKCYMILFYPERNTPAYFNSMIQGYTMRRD
T1 sequence (Q7RTX0 21-852 partner): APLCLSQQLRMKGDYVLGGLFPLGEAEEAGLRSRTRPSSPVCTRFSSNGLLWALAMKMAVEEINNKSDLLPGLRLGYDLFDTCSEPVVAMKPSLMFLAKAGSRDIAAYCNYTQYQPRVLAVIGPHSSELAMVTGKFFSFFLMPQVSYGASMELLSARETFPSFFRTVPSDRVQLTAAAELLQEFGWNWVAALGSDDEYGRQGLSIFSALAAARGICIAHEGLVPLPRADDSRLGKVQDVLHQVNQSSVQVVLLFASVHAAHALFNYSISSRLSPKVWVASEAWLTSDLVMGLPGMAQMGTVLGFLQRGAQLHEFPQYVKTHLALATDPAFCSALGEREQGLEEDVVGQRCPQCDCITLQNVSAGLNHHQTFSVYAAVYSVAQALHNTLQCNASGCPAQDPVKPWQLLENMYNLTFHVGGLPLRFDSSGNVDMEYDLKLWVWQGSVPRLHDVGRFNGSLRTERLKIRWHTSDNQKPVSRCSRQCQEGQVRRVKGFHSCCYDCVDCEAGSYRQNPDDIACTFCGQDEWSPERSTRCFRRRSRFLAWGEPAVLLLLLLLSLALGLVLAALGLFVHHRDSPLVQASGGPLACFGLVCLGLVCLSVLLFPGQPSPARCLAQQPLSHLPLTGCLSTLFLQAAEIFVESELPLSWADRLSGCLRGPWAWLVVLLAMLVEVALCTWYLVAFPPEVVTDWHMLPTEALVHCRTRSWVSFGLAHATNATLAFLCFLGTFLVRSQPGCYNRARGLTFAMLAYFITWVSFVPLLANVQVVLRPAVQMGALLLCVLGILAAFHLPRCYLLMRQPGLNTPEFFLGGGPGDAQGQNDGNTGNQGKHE
Experiment: Receptor-based assay: sweetener EC50 alone and with test compound (enhancement ratio)
Assay type: cell-based
Conditions: for Fructose Enhancement EC50 Ratio: sweetener fructose; for Sucralose Enhancement EC50 Ratio: sweetener sucralose; for Sucrose Enhancement EC50 Ratio: sweetener sucrose
In short: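 Sucrose, sucralose or fructose EC50 measured on human T1R2/T1R3, alone and with 3, 10 or 50 μM test compound. Enhancement is the EC50 ratio without/with compound, binned A >20, B 10-20, C >1 to <10.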

Row | Structure (SMILES) | Fructose Enhancement EC50 Ratio (10 μM test compound) | Fructose Enhancement EC50 Ratio (50 μM test compound) | Sucralose Enhancement EC50 Ratio (10 μM test compound) | Sucralose Enhancement EC50 Ratio (50 μM test compound) | Sucrose Enhancement EC50 Ratio (3 μM test compound) | Sucrose Enhancement EC50 Ratio (10 μM test compound) | Sucrose Enhancement EC50 Ratio (50 μM test compound)
1 | CC(C)CNC(=O)c1ccc(N2CCC[C@H](COc3cccc4c3C(N)=NS(=O)(=O)N4)C2)nc1 [Compound 515] | C (A “C” value indicates an enhancement ratio greater than 1 and less than 10) | C (A “C” value indicates an enhancement ratio greater than 1 and less than 10) | A (An “A” value indicates an enhancement ratio of greater than 20) | A (An “A” value indicates an enhancement ratio of greater than 20) | C (A “C” value indicates an enhancement ratio greater than 1 and less than 10) | C (A “C” value indicates an enhancement ratio greater than 1 and less than 10) | C (A “C” value indicates an enhancement ratio greater than 1 and less than 10)
2 | NC1=NS(=O)(=O)Nc2cccc(OC[C@H]3CCCN(c4ncc(F)cn4)C3)c21 [Compound 305] | C (A “C” value indicates an enhancement ratio greater than 1 and less than 10) | C (A “C” value indicates an enhancement ratio greater than 1 and less than 10) | A (An “A” value indicates an enhancement ratio of greater than 20) | A (An “A” value indicates an enhancement ratio of greater than 20) | C (A “C” value indicates an enhancement ratio greater than 1 and less than 10) | C (A “C” value indicates an enhancement ratio greater than 1 and less than 10) | C (A “C” value indicates an enhancement ratio greater than 1 and less than 10)
3 | NC1=NS(=O)(=O)Nc2cccc(OC[C@H]3CCCN(c4cc(C(=O)NCC5CCCCC5)ccn4)C3)c21 [Compound 618] |  | C (A “C” value indicates an enhancement ratio greater than 1 and less than 10) | B (A “B” value indicates an enhancement ratio from 10 to 20) | B (A “B” value indicates an enhancement ratio from 10 to 20) | C (A “C” value indicates an enhancement ratio greater than 1 and less than 10) | C (A “C” value indicates an enhancement ratio greater than 1 and less than 10) | C (A “C” value indicates an enhancement ratio greater than 1 and less than 10)
4 | CN(C)CCNC(=O)c1ccnc(N2CCC[C@H](COc3cccc4c3C(N)=NS(=O)(=O)N4)C2)c1 [Compound 605] | C (A “C” value indicates an enhancement ratio greater than 1 and less than 10) | C (A “C” value indicates an enhancement ratio greater than 1 and less than 10) | A (An “A” value indicates an enhancement ratio of greater than 20) | A (An “A” value indicates an enhancement ratio of greater than 20) | C (A “C” value indicates an enhancement ratio greater than 1 and less than 10) | C (A “C” value indicates an enhancement ratio greater than 1 and less than 10) | B (A “B” value indicates an enhancement ratio from 10 to 20)
5 | Cc1cc(C)nc(NC(C)(C)COc2cccc3c2C(N)=NS(=O)(=O)N3)n1 [Compound 103] | C (A “C” value indicates an enhancement ratio greater than 1 and less than 10) | C (A “C” value indicates an enhancement ratio greater than 1 and less than 10) | A (An “A” value indicates an enhancement ratio of greater than 20) | A (An “A” value indicates an enhancement ratio of greater than 20) | C (A “C” value indicates an enhancement ratio greater than 1 and less than 10) | C (A “C” value indicates an enhancement ratio greater than 1 and less than 10) | C (A “C” value indicates an enhancement ratio greater than 1 and less than 10)
6 | CCN(CC)C(=O)c1ccc(N2CCC[C@H](COc3cccc4c3C(N)=NS(=O)(=O)N4)C2)nc1 [Compound 511] |  | C (A “C” value indicates an enhancement ratio greater than 1 and less than 10) | A (An “A” value indicates an enhancement ratio of greater than 20) | A (An “A” value indicates an enhancement ratio of greater than 20) | C (A “C” value indicates an enhancement ratio greater than 1 and less than 10) | C (A “C” value indicates an enhancement ratio greater than 1 and less than 10) | B (A “B” value indicates an enhancement ratio from 10 to 20)
7 | CCN(CC)C(=O)c1cccc(N2CCC[C@H](COc3cccc4c3C(N)=NS(=O)(=O)N4)C2)n1 [Compound 411] |  |  | B (A “B” value indicates an enhancement ratio from 10 to 20) |  | C (A “C” value indicates an enhancement ratio greater than 1 and less than 10) | C (A “C” value indicates an enhancement ratio greater than 1 and less than 10) | 
8 | CNC(=O)c1ccc(N2CCC[C@H](COc3cccc4c3C(N)=NS(=O)(=O)N4)C2)nc1 [Compound 500] |  |  | A (An “A” value indicates an enhancement ratio of greater than 20) | A (An “A” value indicates an enhancement ratio of greater than 20) | C (A “C” value indicates an enhancement ratio greater than 1 and less than 10) | C (A “C” value indicates an enhancement ratio greater than 1 and less than 10) | C (A “C” value indicates an enhancement ratio greater than 1 and less than 10)
9 | CC(C)NC(=O)c1ccnc(N2CCC[C@H](COc3cccc4c3C(N)=NS(=O)(=O)N4)C2)c1 [Compound 606] | C (A “C” value indicates an enhancement ratio greater than 1 and less than 10) | C (A “C” value indicates an enhancement ratio greater than 1 and less than 10) | A (An “A” value indicates an enhancement ratio of greater than 20) | A (An “A” value indicates an enhancement ratio of greater than 20) | C (A “C” value indicates an enhancement ratio greater than 1 and less than 10) | B (A “B” value indicates an enhancement ratio from 10 to 20) | C (A “C” value indicates an enhancement ratio greater than 1 and less than 10)
10 | CC(C)(COc1cccc2c1C(N)=NS(=O)(=O)N2)Nc1ccnc(N2CCCC2)n1 [Compound 204] |  | C (A “C” value indicates an enhancement ratio greater than 1 and less than 10) | A (An “A” value indicates an enhancement ratio of greater than 20) | A (An “A” value indicates an enhancement ratio of greater than 20) | C (A “C” value indicates an enhancement ratio greater than 1 and less than 10) | C (A “C” value indicates an enhancement ratio greater than 1 and less than 10) | C (A “C” value indicates an enhancement ratio greater than 1 and less than 10)
